Measurements published in ChEMBL document CHEMBL4325829, “Design and Synthesis of Tubulin and Histone Deacetylase Inhibitor Based on iso-Combretastatin A-4” (J Med Chem, 2018).
Calls of active or inactive are those of the source. No cut-off for these calls is given here.

Columns and labels:
HT-29 = test: Potency index, ratio of IC50 for TSA to IC50 for test compound for antiproliferative activity against human HT-29 cells after 72 hrs by MTS assay; format: functional
[1] = molecular target: T1, Protein deacetylase HDAC6 (Homo sapiens) (UniProt Q9UBN7); test: Inhibition of HDAC6 in human HT-29 cells assessed as acetylated alpha-tubulin levels at 25 uM after 6 hrs by Western blot analysis relative to control; format: cell-based
T1 sequence (whole entry): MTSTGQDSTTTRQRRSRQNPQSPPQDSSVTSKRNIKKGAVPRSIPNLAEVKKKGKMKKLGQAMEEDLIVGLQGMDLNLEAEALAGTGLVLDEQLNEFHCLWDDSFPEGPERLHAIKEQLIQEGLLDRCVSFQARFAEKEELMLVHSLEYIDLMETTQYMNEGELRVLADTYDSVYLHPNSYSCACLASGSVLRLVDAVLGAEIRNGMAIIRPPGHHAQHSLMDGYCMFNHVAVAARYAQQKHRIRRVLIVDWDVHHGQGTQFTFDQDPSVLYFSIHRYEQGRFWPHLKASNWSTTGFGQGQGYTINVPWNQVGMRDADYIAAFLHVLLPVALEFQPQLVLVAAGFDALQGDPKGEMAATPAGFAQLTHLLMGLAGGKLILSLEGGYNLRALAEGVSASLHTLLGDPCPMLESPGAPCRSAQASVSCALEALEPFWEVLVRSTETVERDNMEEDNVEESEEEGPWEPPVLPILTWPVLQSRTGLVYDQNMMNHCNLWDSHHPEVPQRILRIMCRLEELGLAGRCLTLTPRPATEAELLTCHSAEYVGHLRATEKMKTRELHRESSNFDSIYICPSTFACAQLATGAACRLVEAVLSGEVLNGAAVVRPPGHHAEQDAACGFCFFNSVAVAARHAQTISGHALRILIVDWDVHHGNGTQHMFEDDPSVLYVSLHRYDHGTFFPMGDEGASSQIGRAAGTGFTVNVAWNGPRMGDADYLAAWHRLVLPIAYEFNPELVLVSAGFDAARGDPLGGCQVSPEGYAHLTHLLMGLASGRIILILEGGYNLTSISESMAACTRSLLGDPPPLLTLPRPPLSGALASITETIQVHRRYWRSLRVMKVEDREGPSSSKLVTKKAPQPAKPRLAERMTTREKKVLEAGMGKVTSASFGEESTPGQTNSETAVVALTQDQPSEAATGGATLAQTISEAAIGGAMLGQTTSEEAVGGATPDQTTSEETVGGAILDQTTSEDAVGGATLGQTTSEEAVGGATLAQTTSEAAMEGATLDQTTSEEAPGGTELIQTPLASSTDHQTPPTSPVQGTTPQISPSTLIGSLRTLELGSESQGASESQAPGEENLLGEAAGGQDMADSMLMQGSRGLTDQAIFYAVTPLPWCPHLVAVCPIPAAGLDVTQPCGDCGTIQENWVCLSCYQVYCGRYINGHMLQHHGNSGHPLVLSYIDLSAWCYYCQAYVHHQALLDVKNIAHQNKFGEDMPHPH

K562 = test: Induction of cell cycle arrest in human K562 cells assessed as accumulation at G2/M phase at 5 to 10 nM after 24 hrs by propidium iodide-staining based flow cytometry; format: functional
K-562R = test: Potency index, ratio of IC50 for isoCA4 to IC50 for test compound for antiproliferative activity against human K562R cells after 72 hrs by MTS assay; format: functional
U-87 MG = test: Potency index, ratio of IC50 for TSA to IC50 for test compound for antiproliferative activity against human U87 cells after 72 hrs by MTS assay; format: functional, U-87MG ATCC
[2] = molecular target: T2, Histone deacetylase 8 (Homo sapiens) (UniProt Q9BY41); test: Inhibition of HDAC8 in human HT-29 cells assessed as acetylated SMC3 levels at 25 uM after 24 hrs by Western blot analysis relative to control; format: cell-based
T2 sequence (whole entry): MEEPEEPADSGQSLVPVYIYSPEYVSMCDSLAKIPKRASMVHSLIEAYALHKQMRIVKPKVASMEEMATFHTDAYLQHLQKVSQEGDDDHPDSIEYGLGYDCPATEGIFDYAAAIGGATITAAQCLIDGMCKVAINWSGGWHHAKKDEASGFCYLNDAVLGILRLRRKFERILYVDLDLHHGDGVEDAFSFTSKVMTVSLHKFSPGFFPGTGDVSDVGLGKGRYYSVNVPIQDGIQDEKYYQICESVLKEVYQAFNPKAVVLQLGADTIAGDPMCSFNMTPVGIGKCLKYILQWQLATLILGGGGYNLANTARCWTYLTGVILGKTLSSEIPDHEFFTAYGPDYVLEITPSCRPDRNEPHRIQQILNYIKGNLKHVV

[3] = molecular target: T1, Protein deacetylase HDAC6 (Homo sapiens); test: Inhibition of HDAC6 in human HT-29 cells assessed as acetylated alpha-tubulin levels at 25 uM after 24 hrs by Western blot analysis relative to control; format: cell-based
Tubulin (Homo sapiens) [4] = molecular target: T3, Tubulin (Homo sapiens) (UniProt P68371+Q9H4B7+P0DPH7+P68366+Q13509+Q71U36+P04350+Q3ZCM7+P07437+P68363+Q9BQE3+Q6PEY2+Q13885+Q9BVA1+Q9BUF5); test: Inhibition of tubulin polymerization in human K562 cells assessed as multinucleation at 10 nM after 24 hrs by DAPI-staining based inverted microscopy; format: cell-based
Tubulin (Homo sapiens) [5] = molecular target: T3, Tubulin (Homo sapiens); test: Inhibition of tubulin polymerization in human K562 cells assessed as disruption of spindle formation at 1 nM after 24 hrs by DAPI-staining based inverted microscopy; format: cell-based

With `C=C(c1ccc(OC)c(/C=C/C(=O)NO)c1)c1cc(OC)c(OC)c(OC)c1` the “Ratio IC50” value (HT-29) was 17, the fold change (FC) [1] was 0.4 and the Activity (K562) was “Active”. For the same compound, the “Ratio IC50” value (K-562R) was 2, the “Ratio IC50” value (U-87 MG) was 650 and the fold change (FC) [2] was 5.4. The fold change (FC) [3] was 0.5, the Activity (Tubulin (Homo sapiens) [4]) was “Active” and the Activity (Tubulin (Homo sapiens) [5]) was “Active”.
